Earlier results, collected in patent US20050182128A1, “Use of anethole dithiolethione in lung cancer chemoprevention” (priority 2002, published 2005).

How the values were obtained:
metaplasia = metaplasia as intermediate endpoint biomarker; cited from earlier work
[1] = in vivo; cited from earlier work
aflatoxins = details: in vivo; cited from earlier work
[2] = test system: glutathione-S-transferase (GST); details: rat model of hepatoma; p<0.01; cited from earlier work

SMILES	Chemopreventive efficacy (metaplasia)	Toxicity in chemoprevention [1]	Phase I activation of aflatoxins (aflatoxins)	Phase II conjugation of aflatoxin (aflatoxins)	Mean GST levels in the liver [2]
CC1=C(/C=C/C(C)=C/C=C/C(C)=C/C(=O)Nc2ccc(O)cc2)C(C)(C)CCC1 [N-(4-Hydroxyphenyl)retinamide]	not found to be effective	–	–	–	–
Cc1c(-c2cnccn2)ssc1=S [Oltipraz, 5-(2-pyrazinyl)-4-methyl-1,2-dithiol-3-thione]	–	too toxic for chemoprevention	inhibited phase I activation of aflatoxins	increased phase II conjugation of aflatoxin	statistically increased
CC1=C(/C=C/C(C)=C/C=C/C(C)=C\C(=O)O)C(C)(C)CCC1 [isotretinoin]	not found to be effective	–	–	–	–
